Reference: patent US11926613B2, “Kinase inhibitors for the treatment of central and peripheral nervous system disorders” (UNIVERSITY OF MIAMI, priority 2017, dated 2024)
Entries after “also recorded” stand apart in the source; their conditions may differ. Where two headings read alike, the source gives them in different places.

Tests used:
[1] = system: neurons from hippocampi of E18 rat embryos; assay: Neurite growth length (% NTL) in cultured E18 rat hippocampal neurons, 9-point dose response, 48 hours; format: cell-based; conditions: for activity at 0.078 µM / activity at 0.156 µM / activity at 0.312 µM / activity at 0.625 µM / activity at 1.25 µM / activity at 2.5 µM / activity at 5 µM / activity at 10 µM / activity at 20 µM: Rattus norvegicus, Neuron, 48 h
Outline: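 % NTL comes from automated neurite tracing of βIII-tubulin-stained cells, with 200–300 or more neurons per condition. Compounds were given in a 9-point dilution series (20 μM to 0.078125 μM) for 48 h. Cells were trypsin-dissociated E18 rat hippocampal neurons plated at 1500/well on poly-D-lysine.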

Primary Neurons = assay: HCS neurite outgrowth assay (High Content Screening with Primary Neurons); format: cell-based
[2] = system: corticospinal tract (CST) axons; assay: Unilateral pyramidotomy model, in vivo axon growth (CST axon sprouting); conditions: mice, cortical injection, 2 mM final concentration, 5 weeks after unilateral pyramidotomy, N=2
Excerpt: B) Graph represents averages of sprouting axon index across two animals treated with indicated compounds. Error bars indicate range of data points. N=2 animals (mice).
To assess the role of the compounds described herein in axon growth in vivo, the unilateral pyramidotomy model was employed, in which the pyramid in the ventral brainstem was severed unilaterally, rostral to the decussation of corticospinal tract (CST) axons. The animals then received bilateral cortical injections of a compound described herein (or DMSO) mixed 1:1 with AAV8-UbC-GFP or AAV8-UbC-TdTomato (5×10^13 GC/mL) for a final concentration of 2 mM (2 animals (mice) for each condition). […] Axon growth in the cervical spinal cord was assessed after 5 weeks. Cervical sections of the spinal cord were stained with antibodies against PKCγ (to assess completeness of lesion), and GFP (to amplify the signal from the virus). For analyses, GFP+ axons sprouting into the denervated gray matter were counted at 0, 500, 1000 μm lateral to the central canal, and normalized to the number of GFP+ fibers at the level of the brainstem (sprouting axon index).

Compound | activity at 0.078 µM ([1]; 78 nM) | activity at 0.156 µM ([1]; 156 nM) | activity at 0.312 µM ([1]; 312 nM) | activity at 0.625 µM ([1]; 625 nM) | activity at 1.25 µM ([1]; 1.25 μM) | activity at 2.5 µM ([1]; 2.5 μM) | activity at 5 µM ([1]; 5 μM) | activity at 10 µM ([1]; 10 μM) | activity at 20 µM ([1]; 20 μM) | EC50 (Primary Neurons; Primary neuron) | also measured
COc1ccc(O)c(C(=O)c2ccc(C(=O)N[C@@H]3CNC[C@H]3NC(=O)c3ccnc(N)n3)cc2)c1 [Example A76, 2-amino-N-[(3R,4R)-4-[4-(2-hydroxy-5-methoxybenzoyl)benzamido]pyrrolidin-3-yl]pyrimidine-4-carboxamide] | 131% | 121% | 140% | 156% | 169% | 207% | 317% | 558% | 692% | 8.37 µM | 
COc1ccc(O)c(C(=O)c2ccc(C(=O)N[C@@H]3CNC[C@H]3NC(=O)c3ccncc3)cc2)c1 [Example A77, N-[(3R,4R)-4-[4-(2-hydroxy-5-methoxybenzoyl)benzamido]pyrrolidin-3-yl]pyridine-4-carboxamide] | 118% | 125% | 133% | 144% | 159% | 187% | 263% | 469% | 653% | 10.4 µM | 
Cc1ccc(O)c(C(=O)c2ccc(C(=O)N[C@@H]3CNC[C@H]3NC(=O)c3ccncc3)cc2)c1 [Example A78, N-[(3R,4R)-4-[4-(2-hydroxy-5-methylbenzoyl)benzamido]pyrrolidin-3-yl]pyridine-4-carboxamide] | 122% | 121% | 133% | 143% | 152% | 176% | 256% | 410% | 503% | 7.77 µM | 
O=C(N[C@@H]1CNC[C@H]1NC(=O)c1ccc(C(=O)c2ccc(Cl)cc2O)cc1)c1ccncc1 [Example A79, N-[(3R,4R)-4-[4-(4-chloro-2-hydroxybenzoyl)benzamido]pyrrolidin-3-yl]pyridine-4-carboxamide] | 116% | 109% | 117% | 118% | 111% | 116% | 112% | 107% | 94.7% | > 20 µM | 
Cc1ccc(C(=O)c2ccc(C(=O)N[C@@H]3CNC[C@H]3NC(=O)c3ccnc(N)n3)cc2)c(O)c1 [Example A80, 2-amino-N-[(3R,4R)-4-[4-(2-hydroxy-4-methylbenzoyl)benzamido]pyrrolidin-3-yl]pyrimidine-4-carboxamide] | 125% | 124% | 141% | 158% | 178% | 221% | 203% | 160% | 155% | 0.534 µM | 
Cc1ccc(C(=O)c2ccc(C(=O)N[C@@H]3CNC[C@H]3NC(=O)c3ccncc3)cc2)c(O)c1 [Example A81, N-[(3R,4R)-4-[4-(2-hydroxy-4-methylbenzoyl)benzamido]pyrrolidin-3-yl]pyridine-4-carboxamide] | 124% | 120% | 127% | 128% | 128% | 125% | 130% | 113% | 116% | 5.22 µM | 
COc1ccc(C(=O)c2ccc(C(=O)N[C@@H]3CNC[C@H]3NC(=O)c3ccnc(N)n3)cc2)c(O)c1 [Example A82, 2-amino-N-[(3R,4R)-4-[4-(2-hydroxy-4-methoxybenzoyl)benzamido]pyrrolidin-3-yl]pyrimidine-4-carboxamide] | 107% | 115% | 117% | 124% | 122% | 120% | 120% | 131% | 117% | 0.154 µM | 
COc1ccc(C(=O)c2ccc(C(=O)N[C@@H]3CNC[C@H]3NC(=O)c3ccncc3)cc2)c(O)c1 [Example A83, N-[(3R,4R)-4-[4-(2-hydroxy-4-methoxybenzoyl)benzamido]pyrrolidin-3-yl]pyridine-4-carboxamide] | 106% | 105% | 110% | 118% | 124% | 127% | 127% | 123% | 117% | 0.486 µM | 
Nc1nccc(C(=O)N[C@@H]2CNC[C@H]2NC(=O)c2ccc(C(=O)c3cc(Cl)ccc3O)cc2)n1 [Example A84, 2-amino-N-[(3R,4R)-4-[4-(5-chloro-2-hydroxybenzoyl)benzamido]pyrrolidin-3-yl]pyrimidine-4-carboxamide] | 115% | 118% | 125% | 139% | 153% | 165% | 270% | 492% | 564% | 6.86 µM | 
O=C(N[C@@H]1CNC[C@H]1NC(=O)c1ccc(C(=O)c2cc(Cl)ccc2O)cc1)c1ccncc1 [Example A85, N-[(3R,4R)-4-[4-(5-chloro-2-hydroxybenzoyl)benzamido]pyrrolidin-3-yl]pyridine-4-carboxamide] | 134% | 144% | 140% | 153% | 177% | 219% | 376% | 534% | 426% | 3.82 µM | 
O=C(N[C@@H]1CNC[C@H]1NC(=O)c1ccc(C(=O)c2ccccc2O)cc1)c1ccncc1 [Example A86, N-[(3R,4R)-4-[4-(2-hydroxybenzoyl)benzamido]pyrrolidin-3-yl]pyridine-4-carboxamide] | 124% | 135% | 126% | 134% | 136% | 158% | 185% | 271% | 379% | 11.9 µM | 
O=C(N[C@@H]1CNC[C@H]1NC(=O)c1ccc(C(=O)c2cc(Br)ccc2O)cc1)c1ccncc1 [Example A88, N-((3R,4R)-4-(4-(5-bromo-2-hydroxybenzoyl)benzamido)pyrrolidin-3-yl)isonicotinamide] |  |  |  |  |  |  |  |  |  | 1.17 µM | CST axon sprouting (sprouting axon index) [2]: promotes CST axon sprouting in the spinal cord; also recorded: nearly a two-fold increase in sprouting
N[(3R,4R)-4-{4-[(2-fluoro-6-hydroxy-3- methoxyphenyl)methyl]benzamido}pyrrolidin- 3-yl]pyridine-4-carboxamide [Example A55] |  |  |  |  |  |  |  |  |  |  | neurite growth length (% NTL) ([1]; 78 nM): 85.02 % NTL; neurite growth length (% NTL) ([1]; 156 nM): 77.96 % NTL; neurite growth length (% NTL) ([1]; 312 nM): 80.06 % NTL; neurite growth length (% NTL) ([1]; 625 nM): 76.79 % NTL; neurite growth length (% NTL) ([1]; 1.25 μM): 81.96 % NTL; neurite growth length (% NTL) ([1]; 2.5 μM): 90.13 % NTL; neurite growth length (% NTL) ([1]; 5 μM): 93.58 % NTL; neurite growth length (% NTL) ([1]; 10 μM): 98.77 % NTL; neurite growth length (% NTL) ([1]; 20 μM): 96.04 % NTL; EC50 (Primary Neurons): 4.74 µM
